In patent US9593149B2, “Amylin and calcitonin receptor agonist” (Novo Nordisk A/S, priority 2014, dated 2017):
In brackets after ≈: the same amount, converted by molar mass. Numbered stars: 1 amine (or outer) side, 2 acyl side, 3 side chain; on linkers, the order of the positions; unused ones are H or OH. Peptide text beside a SMILES is read from it. * marks the point of attachment. C20 diacid = O=C(O)CCCCCCCCCCCCCCCCCCC(=O)*; C18 diacid = O=C(O)CCCCCCCCCCCCCCCCC(=O)*; γGlu = O=C(O)[C@H](CCC(=O)[*:2])N[*:1]; C12 diacid = O=C(O)CCCCCCCCCCC(=O)*

Tests used:
[1] = Assay (IV) determination of solubility; type: physicochemical
Experimental: Assay (IV)—Determination of Solubility
The mimylin peptide was dissolved in water at ˜500 nmol/ml and mixed 1:1 with a series of buffers (100 mM glycylglycine pH 3.0, 100 mM glycylglycine pH 4.0, 100 mM glycylglycine pH 5.0, 100 mM bistrispropane pH 6.0, 100 mM bistrispropane pH 6.5, 100 mM bistrispropane pH 7.0, 100 mM bistrispropane pH 7.5, 100 mM bistrispropane pH 8.0).

[2] = Assay (IX) pK, T½ in mini-pig; type: in vivo, Göttingen mini-pigs; details: i.v.
Experimental: Assay (IX)—pK—Determination of T½ in Mini-Pig
Pharmacokinetic (PK) studies in Göttingen mini-pigs were conducted in order to determine the T½ of the mimylin compound according to the Examples as indicated after i.v. administration.
T½ values of the amylin analogues of the invention is determined by pharmacokinetic studies in female Göttingen mini-pigs from Ellegaard Göttingen Minipigs ApS and the principles of laboratory animal care are followed.
An acclimatisation period of approximately 6-10 days was allowed before the animals entered the study. At start of the acclimatisation period the mini-pigs were about 5 to 12 months old and in the weight range of 15-35 kg. The mini-pigs had two central venous catheters inserted which were used for blood sampling.
The studies were conducted in an animal room which was illuminated to give a cycle of approximately 12 hours light and 12 hours darkness. The animals were housed individually. The animals had free access to domestic quality drinking water during the study, and no food restrictions applied for PK studies. The animals were weighed on arrival and on the days of dosing.
In the present studies the test substances were administered intravenously in approximately 5 nmol/kg dose. The animals received a single intravenous injection in one central venous catheter and blood sampling was performed from the other catheter, where possible. Each test substance was given to typically three but in some cases two or four animals.
A full plasma concentration-time profile, employing 12-16 sampling points, was obtained from each animal. In example blood samples were collected according to the following schedule:
After Intravenous Administration:
Pre-dose (0), 0.5, 1, 2, 4, 6, 8, 12, 24, 48, 72, 96, 120, 168 and 240 hours after injection. In some cases also additional blood samples up to 288 hours post injection were taken.
At each sampling time, 0.5 to 2 ml of blood was drawn from each animal. The blood samples were taken via the central venous catheter.
The 0.8 mL blood samples were collected into EDTA test tubes (8 mM EDTA). Blood samples were kept on ice for max 20 min. before centrifugation. Plasma was separated using centrifugation (i.e. at 4° C., 10 min., 2000G) and was immediately transferred to Micronic tubes on dry ice. Approximately 200 μl plasma was transferred to each Micronic tube. The plasma was stored at −20° C. until assayed. The plasma samples were assayed for the content of compound using LCMS.
The plasma concentration-time profiles were analysed by a non-compartmental pharmacokinetic analysis (NCA) using Phoenix WinNonlin 6.3 (Pharsight Inc., Mountain View, Calif., USA). NCA was performed using the individual plasma concentration-time profiles from each animal. T½ is the terminal half-life=In2/λz and was determined from λz, the first order rate constant associated with the terminal (log-linear) portion of the curve, estimated by linear regression of time vs. log concentration.
MS-Method for Amylin and Mimylin Quantification
40 μl plasma is diluted with 120 μl 66.67% EtOH+1% HCOOH and mixed. Centrifuged for 20 min. at 13000 rpm, 4° C. The supernatant is analyzed by an LC-MS method on a Sciex API 3000 and quantitated with a standard made up in plasma

Row | SMILES | Solubility ([1]; pH 3.0) | Solubility ([1]; pH 4.0) | Solubility ([1]; pH 5.0) | Solubility ([1]; pH 6.0) | Solubility ([1]; pH 6.5) | Solubility ([1]; pH 7.0) | Solubility ([1]; pH 7.5) | Solubility ([1]; pH 8.0) | PK mini pig iv T½ [2] [h] | solubility at 18 h ([1]; bistrispropane buffer, pH 6.5) [µM] | solubility at 18 h ([1]; pH 5.0) [µM]
1 | CC(C)C[C@H](NC(=O)[C@H](C)NC(=O)[C@H](C)NC(=O)[C@@H](NC(=O)[C@H](CO)NC(=O)[C@H](CC(C)C)NC(=O)[C@H](CCC(=O)O)NC(=O)[C@H](CO)NC(=O)[C@H](C)NC(=O)CC[C@H](NC(=O)CCCCCCCCCCCCCCCCCCC(=O)O)C(=O)O)[C@@H](C)O)C(=O)NCC(=O)N[C@@H](CCCNC(=N)N)C(=O)N[C@@H](CC(C)C)C(=O)N[C@@H](CO)C(=O)N[C@@H](C)C(=O)N[C@@H](CCC(=O)O)C(=O)N[C@@H](CC(C)C)C(=O)N[C@@H](Cc1cnc[nH]1)C(=O)N[C@@H](CCC(=O)O)C(=O)N[C@@H](CC(C)C)C(=O)N[C@@H](C)C(=O)N[C@H](C(=O)N[C@@H](CC(C)C)C(=O)N1CCC[C@H]1C(=O)N[C@@H](CCCNC(=N)N)C(=O)N[C@H](C(=O)N[C@@H](CCC(=O)O)C(=O)N[C@H](C(=O)NCC(=O)N[C@@H](CO)C(=O)NCC(=O)N[C@@H](CO)C(=O)N1CCC[C@H]1C(N)=O)[C@@H](C)O)[C@@H](C)O)[C@@H](C)O [Ex. #40, [N-terminal(C20 diacid-gGlu), des1, 30S, 31G]mimylin] ({C20 diacid-γGlu}-ASELSTAALGRLSAELHELATLPRTETGSGSP-NH2) | ≧200 μM | ≧200 μM | ≧200 μM | ≧200 μM | ≧200 μM | ≧200 μM | ≧200 μM | ≧200 μM | 171 | – | –
2 | CC(C)C[C@H](NC(=O)[C@H](C)NC(=O)[C@H](C)NC(=O)[C@@H](NC(=O)[C@H](CO)NC(=O)[C@H](CC(C)C)NC(=O)[C@H](CCC(=O)O)NC(=O)[C@H](CO)NC(=O)[C@H](C)NC(=O)[C@H](CCC(=O)O)NC(=O)CCCCCCCCCCC(=O)O)[C@@H](C)O)C(=O)NCC(=O)N[C@@H](CCCNC(=N)N)C(=O)N[C@@H](CC(C)C)C(=O)N[C@@H](CO)C(=O)N[C@@H](C)C(=O)N[C@@H](CCC(=O)O)C(=O)N[C@@H](CC(C)C)C(=O)N[C@@H](Cc1cnc[nH]1)C(=O)N[C@@H](CCC(=O)O)C(=O)N[C@@H](CC(C)C)C(=O)N[C@@H](C)C(=O)N[C@H](C(=O)N[C@@H](CC(C)C)C(=O)N1CCC[C@H]1C(=O)N[C@@H](CCCNC(=N)N)C(=O)N[C@H](C(=O)N[C@@H](CCC(=O)O)C(=O)N[C@H](C(=O)NCC(=O)N1CCC[C@H]1C(=O)N[C@@H](CCC(=O)O)C(=O)N[C@@H](CO)C(=O)N1CCC[C@H]1C(N)=O)[C@@H](C)O)[C@@H](C)O)[C@@H](C)O [compound 6, [N-terminal(C12 diacid)]mimylin] ({C12 diacid}-EASELSTAALGRLSAELHELATLPRTETGPESP-NH2) | ≧200 μM | ≧200 μM | ≧200 μM | ≧200 μM | – | ≧200 μM | ≧200 μM | ≧200 μM | 1 | ≥ 200 | –
3 | CC(C)C[C@H](NC(=O)[C@H](C)NC(=O)[C@H](C)NC(=O)[C@@H](NC(=O)[C@H](CO)NC(=O)[C@H](CC(C)C)NC(=O)[C@H](CCC(=O)O)NC(=O)[C@H](CO)NC(=O)[C@H](C)NC(=O)[C@H](CCC(=O)O)NC(=O)CCCCCCCCCCCCCCCCC(=O)O)[C@@H](C)O)C(=O)NCC(=O)N[C@@H](CCCNC(=N)N)C(=O)N[C@@H](CC(C)C)C(=O)N[C@@H](CO)C(=O)N[C@@H](C)C(=O)N[C@@H](CCC(=O)O)C(=O)N[C@@H](CC(C)C)C(=O)N[C@@H](Cc1cnc[nH]1)C(=O)N[C@@H](CCC(=O)O)C(=O)N[C@@H](CC(C)C)C(=O)N[C@@H](C)C(=O)N[C@H](C(=O)N[C@@H](CC(C)C)C(=O)N1CCC[C@H]1C(=O)N[C@@H](CCCNC(=N)N)C(=O)N[C@H](C(=O)N[C@@H](CCC(=O)O)C(=O)N[C@H](C(=O)NCC(=O)N[C@@H](CO)C(=O)NCC(=O)N[C@@H](CO)C(=O)N1CCC[C@H]1C(N)=O)[C@@H](C)O)[C@@H](C)O)[C@@H](C)O [compound 21, [N-terminal(C18 diacid), 30S, 31G]mimylin] ({C18 diacid}-EASELSTAALGRLSAELHELATLPRTETGSGSP-NH2) | ≧200 μM | ≧200 μM | ≧200 μM | ≧200 μM | ≧200 μM | ≧200 μM | ≧200 μM | ≧200 μM | 118 | – | –
4 | CC(C)C[C@H](NC(=O)[C@H](CCC(=O)O)NC(=O)[C@H](Cc1cnc[nH]1)NC(=O)[C@H](CC(C)C)NC(=O)[C@H](CCC(=O)O)NC(=O)[C@H](C)NC(=O)[C@H](CO)NC(=O)[C@H](CC(C)C)NC(=O)[C@H](CCCNC(=N)N)NC(=O)CNC(=O)[C@H](CC(C)C)NC(=O)[C@@H](NC(=O)[C@H](C)NC(=O)[C@@H](NC(=O)[C@H](CO)NC(=O)[C@H](CC(C)C)NC(=O)[C@H](CCC(=O)O)NC(=O)[C@H](CO)NC(=O)[C@H](C)NC(=O)[C@H](CCC(=O)O)NC(=O)CCCCCCCCCCCCCCCCC(=O)O)[C@@H](C)O)C(C)C)C(=O)N[C@@H](C)C(=O)N[C@H](C(=O)N[C@@H](CC(C)C)C(=O)N1CCC[C@H]1C(=O)N[C@@H](CCCNC(=N)N)C(=O)N[C@H](C(=O)N[C@@H](CCC(=O)O)C(=O)N[C@H](C(=O)NCC(=O)N1CCC[C@H]1C(=O)N[C@@H](CCC(=O)O)C(=O)N[C@@H](CO)C(=O)N1CCC[C@H]1C(N)=O)[C@@H](C)O)[C@@H](C)O)[C@@H](C)O [compound 9, [N-terminal(C18 diacid), 9V]mimylin] ({C18 diacid}-EASELSTAVLGRLSAELHELATLPRTETGPESP-NH2) | ≧200 μM | ≧200 μM | ≧200 μM | ≧200 μM | ≧200 μM | ≧200 μM | ≧200 μM | ≧200 μM | 90 | – | –
5 | CC(C)C[C@H](NC(=O)[C@H](CCCNC(=N)N)NC(=O)CNC(=O)[C@H](CC(C)C)NC(=O)[C@@H](NC(=O)[C@H](C)NC(=O)[C@@H](NC(=O)[C@H](CO)NC(=O)[C@H](CC(C)C)NC(=O)[C@H](CCC(N)=O)NC(=O)[C@H](CO)NC(=O)[C@H](C)NC(=O)CC[C@H](NC(=O)CCCCCCCCCCCCCCCCCCC(=O)O)C(=O)O)[C@@H](C)O)C(C)C)C(=O)N[C@@H](CO)C(=O)N[C@@H](CCC(N)=O)C(=O)N[C@@H](CCC(=O)O)C(=O)N[C@@H](CC(C)C)C(=O)N[C@@H](Cc1cnc[nH]1)C(=O)N[C@@H](CCC(=O)O)C(=O)N[C@@H](CC(C)C)C(=O)N[C@@H](CCC(N)=O)C(=O)N[C@H](C(=O)N[C@@H](Cc1ccc(O)cc1)C(=O)N1CCC[C@H]1C(=O)N[C@@H](CCCNC(=N)N)C(=O)N[C@H](C(=O)N[C@@H](CCC(=O)O)C(=O)N[C@H](C(=O)NCC(=O)N[C@@H](CO)C(=O)N[C@@H](CCC(N)=O)C(=O)N[C@H](C(=O)N[C@@H](Cc1ccc(O)cc1)C(N)=O)[C@@H](C)O)[C@@H](C)O)[C@@H](C)O)[C@@H](C)O [compound 116, [N-terminal(C20 diacid-gGlu), des1, 4Q, 9V, 15Q, 21Q, 23Y, 30S, 31Q, 32T, 33Y]mimylin] ({C20 diacid-γGlu}-ASQLSTAVLGRLSQELHELQTYPRTETGSQTY-NH2) | ≧200 μM | ≧200 μM | – | ≧200 μM | ≧200 μM | ≧200 μM | ≧200 μM | ≧200 μM | 87 | – | 32 (≈ 129 µg/mL)
